# Laboratory results: patent US12551532B2, “Long-acting amylin receptor agonists and uses thereof” (Eli Lilly and Company, priority 2021, dated 2026)
# Starred links: 1 amine or outer side, 2 acyl side, 3 side chain; linkers in the order of their positions; H or OH if unused. Positions of bridges follow the written chain, without caps; N, C: chain ends. Non-standard residues stand in square brackets, D forms with d. Residues, ends and D or L forms follow the SMILES beside them. Groups on a side chain read outwards from the residue. *: point of attachment. C20 diacid = O=C(O)CCCCCCCCCCCCCCCCCCC(=O)*; γGlu = O=C(O)[C@H](CCC(=O)[*:2])N[*:1]; αMeF = C[C@](N)(Cc1ccccc1)C(=O)O; NMeD = CN[C@@H](CC(=O)O)C(=O)O; NMeN = CN[C@@H](CC(N)=O)C(=O)O; αMeL = CC(C)C[C@](C)(N)C(=O)O; Orn = NCCC[C@H](N)C(=O)O; CH2 = C([*:1])[*:2]
# Key:
# human CT receptors = biological target: T1, human CT receptors (Homo sapiens, UniProt P30988); test: hCTR cAMP functional activity (HTRF); type: cell-based; details: ±SE; UMUC3 cells overexpressing hCTR; relative EC50
# T1 construct: expressed in transfected cells
# T1 sequence (P30988 25-474): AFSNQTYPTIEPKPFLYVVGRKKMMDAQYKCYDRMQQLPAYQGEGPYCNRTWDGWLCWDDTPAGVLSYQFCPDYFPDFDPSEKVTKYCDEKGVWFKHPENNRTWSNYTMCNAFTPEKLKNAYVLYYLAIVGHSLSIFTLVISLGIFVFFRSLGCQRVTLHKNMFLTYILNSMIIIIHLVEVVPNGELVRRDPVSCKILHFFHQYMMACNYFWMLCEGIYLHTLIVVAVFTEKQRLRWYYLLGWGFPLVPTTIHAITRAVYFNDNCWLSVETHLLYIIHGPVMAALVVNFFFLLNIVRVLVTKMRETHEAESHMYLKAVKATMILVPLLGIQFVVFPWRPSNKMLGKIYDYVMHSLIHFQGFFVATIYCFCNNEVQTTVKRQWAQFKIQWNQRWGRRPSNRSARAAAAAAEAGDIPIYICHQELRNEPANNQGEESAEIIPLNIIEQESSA
# Description: The AMY1 and CT receptors are GPCRs that are functionally coupled to Gas proteins. […] In vitro activity of peptides is measured by the amount of cAMP formed in human AMY1R and CTR overexpressed cells.
# Human CT receptors are stably expressed in human urinary bladder cells (UM-UC-3, or UMUC3) under control of a pcDNA expression vector. […] After 20 days under selection, the mRNA levels from different clones are measured to confirm the expression of hCTR. To determine the function of over-expressed hCTR cells, the intracellular cAMP levels in response to salmon calcitonin are measured and compared to the expression of hCTR mRNA in each clone.
# hAMY1R cells are cultured in MEM 1× (Corning) supplemented with 10% FBS, 1% antibiotic/antimycotic solution, 1 mM sodium pyruvate, 1×MEM NEAA, 1× GlutaMAX-I, 200 μg/mL hygromycin B, and 0.4 μg/mL puromycin. The hCTR cells are cultured in the same medium lacking the puromycin. Cultured cells are grown to 70% confluency and then incubated overnight with fresh medium.
# Peptides diluted in DMSO are added (200 nL/well) in a 1:3 dilution series using ECHO acoustic liquid handler (Beckman). Cultured cells are detached with TrypLE Express (Gibco), resuspended in assay buffer, and 10 μL containing 1200 cells/well (hCTR) or 1500 cells/well (hAMY1R) are dispensed into each well. The plates are incubated at room temperature for 1 hour.
# The amount of intracellular cAMP is quantitated using HTRF technology (Homogeneous Time Resolved Fluorescence; Cisbio) as per vendor instructions. Briefly, 10 μL cAMP-d2 conjugate and 10 μL anti-cAMP-cryptate conjugate in lysis buffer are incubated with the treated cells at room temperature for 60 min. […] The raw data are converted to cAMP amount (pmol/well) using a cAMP standard curve generated for each experiment.
# hAMY1R = biological target: T2, hAMY1R (Homo sapiens, UniProt O60894+P30988); test: hAMY1R competitive radioligand binding filter assay (125I-rAMY); details: ± SE; membranes of hAMY1R overexpressing cells
# T2 construct: expressed in transfected cells
# Description: The equilibrium dissociation constants (Kd) for the various receptor/radioligand interactions are determined from saturation binding analysis using the same reagents and buffers as described below for compound testing.
# The receptor binding affinity (Ki) of rAMY, hCT, and hAMY agonist peptides are determined from a competitive radioligand binding filter assay. The assay buffer consists of (in mM) 50 HEPES, pH 7.1, 5 MgCl2, 5 KCl, 0.2% (w/v) bacitracin, 0.003% (w/v) saponin and is used to dilute radioligand and membrane preparation. Binding reactions are carried out in 0.1 mL total reaction volume in a polystyrene 96 deep-well assay block. […] Test compounds and non-specific binding (NSB—defined as 300 nM rAMY) are added to aliquots of radioactivity buffer. […] The binding reaction is initiated by the addition of 0.05 mL of 200 μg/mL hAMY1R diluted in assay buffer to the radioactivity. Assay blocks are gently vortexed, sealed with parafilm, and incubated at RT for approximately 20 hours. […] At the end of the incubation, bound ligand is separated from free by addition of an ice cold quench buffer consisting of 100 mM NaCl, 50 mM TRIS-HCl pH 7.1 and immediately collected over the filter mat by vacuum filtration with a TomTec 96 well filter harvester using the following filter protocol (Dry time, 7; Cycle 3 repeat, 0; Wash Time, 1; Soak Time, 1; 1st Aspirate Time, 4; Wash/Aspirate Time, 7; 2nd Aspirate, 4; air pressure 2 PSI).
# human dendritic cells = type: cell-based
# Description: MAPPS profiles the MHC-II presented peptides on human dendritic cells treated with tested molecules. CD14+ cells, isolated from the PBMCs of normal human donors, are cultured and differentiated into immature DCs by incubation with IL-4 and GM-CSF. On day 4, culture media is replaced with fresh media containing tested molecules. On day 5, LPS is added to transform the cells into mature DCs. On day 6, cells are lysed in RIPA buffer with protease inhibitors. Immunoprecipitation of MHC-II complexes are performed using biotinylated anti-MHC-II antibody coupled to streptavidin beads. The bound complex is eluted and filtered. The isolated MHC-II peptides are analyzed by a mass spectrometer. Peptide identifications are generated by an internal proteomics pipeline using search algorithms with no enzyme and a bovine/human database with test sequences appended to the database. A KNIME workflow is used to process the identification files from the samples. Peptides identified from the test articles are aligned against the parent sequence of the test molecule. The output is used to determine the percentage of donors displaying MHC-II peptides from regions of the test molecule. Compound II, Compound IV, Compound VI, Compound VIII, a compound representative of U.S. Pat. No. 9,023,789 (hereinafter “Compound '789”), and Pramlintide are tested in the MAPPs assay.
# T2 sequence (O60894 27-148 partner, one chain of several): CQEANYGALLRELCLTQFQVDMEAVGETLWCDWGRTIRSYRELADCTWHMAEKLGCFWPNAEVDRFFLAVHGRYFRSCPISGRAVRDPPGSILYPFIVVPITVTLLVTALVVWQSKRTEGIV
SMILES,EC50 (human CT receptors) [nM],Ki (hAMY1R) [nM],MAPPS Assay donors displayed peptides (human dendritic cells),MAPPS Assay immunogenicity risk (human dendritic cells),peptides displayed on MHC-II complexes (human dendritic cells)
CC(C)C[C@H](NC(=O)[C@H](CCCN)NC(=O)CNC(=O)[C@@H](NC(=O)[C@H](C)NC(=O)[C@@H]1CSCSC[C@H](NC(=O)CC[C@H](N)C(=O)O)C(=O)N[C@@H](CC(N)=O)C(=O)N[C@@H]([C@@H](C)O)C(=O)N[C@@H](C)C(=O)N[C@@H]([C@@H](C)O)C(=O)N1)[C@@H](C)O)C(=O)N[C@@H](C)C(=O)N[C@@H](CCC(=O)O)C(=O)N[C@@](C)(Cc1ccccc1)C(=O)N[C@@H](CC(C)C)C(=O)N[C@H](C(=O)N[C@@H](CCCNC(=N)N)C(=O)N[C@@H](CO)C(=O)N[C@@H](CO)C(=O)N[C@@H](CC(N)=O)C(=O)N(C)[C@@H](CC(N)=O)C(=O)N[C@@H](Cc1ccccc1)C(=O)NCC(=O)N1CCC[C@H]1C(=O)N[C@@H](CCCCNC(=O)CC[C@H](NC(=O)CC[C@H](NC(=O)CCCCCCCCCCCCCCCCCCC(=O)O)C(=O)O)C(=O)O)C(=O)N[C@@H](CC(C)C)C(=O)N1CCC[C@H]1C(=O)N1CCC[C@H]1C(=O)N[C@H](C(=O)N[C@@H](CCC(=O)O)C(=O)N[C@H](C(=O)NCC(=O)N[C@@H](CO)C(=O)N[C@@H](CC(N)=O)C(=O)N[C@H](C(=O)N[C@@H](Cc1ccc(O)cc1)C(N)=O)[C@@H](C)O)C(C)C)[C@@H](C)O)C(C)C [Compound II] (γGlu-CNTATCATG[Orn]LAE[αMeF]LVRSSN[NMeN]FGPK([γGlu-γGlu-C20 diacid])LPPTEVGSNTY-NH2; linker 1-6 via CH2),2.34 ± 0.272,0.017 ± 0.006,no peptides,Low Risk,no peptides displayed on MHC-II complexes
CC[C@H](C)[C@H](NC(=O)[C@@H]1CCCN1C(=O)CNC(=O)[C@H](Cc1ccccc1)NC(=O)[C@H](CC(N)=O)NC(=O)[C@H](Cc1c[nH]cn1)NC(=O)[C@H](CO)NC(=O)[C@H](CO)NC(=O)[C@H](CCCNC(=N)N)NC(=O)[C@@H](NC(=O)[C@H](CC(C)C)NC(=O)[C@H](Cc1ccccc1)NC(=O)[C@H](CCC(=O)O)NC(=O)[C@H](C)NC(=O)[C@](C)(CC(C)C)NC(=O)[C@H](CCCN)NC(=O)CNC(=O)[C@@H](NC(=O)[C@H](C)NC(=O)[C@@H]1CSCSC[C@H](NC(=O)[C@@H](N)CCCCNC(=O)CC[C@H](NC(=O)CC[C@H](NC(=O)CCCCCCCCCCCCCCCCCCC(=O)O)C(=O)O)C(=O)O)C(=O)N[C@@H](CCC(=O)O)C(=O)N[C@@H]([C@@H](C)O)C(=O)N[C@@H](C)C(=O)N[C@@H]([C@@H](C)O)C(=O)N1)[C@@H](C)O)C(C)C)C(=O)N[C@@H](CC(C)C)C(=O)N1CCC[C@H]1C(=O)N1CCC[C@H]1C(=O)N[C@H](C(=O)N[C@@H](CCC(=O)O)C(=O)N[C@H](C(=O)NCC(=O)N[C@@H](CO)C(=O)N[C@@H](CC(N)=O)C(=O)N[C@H](C(=O)N[C@@H](Cc1ccc(O)cc1)C(N)=O)[C@@H](C)O)C(C)C)[C@@H](C)O [Compound VIII] (H-K([γGlu-γGlu-C20 diacid])CETATCATG[Orn][αMeL]AEFLVRSSHNFGPILPPTEVGSNTY-NH2; linker 2-7 via CH2),9.69 ± 2.01,0.0435 ± 0.0072,no peptides,Low Risk,no peptides displayed on MHC-II complexes
"CC(C)C[C@H](NC(=O)[C@H](CCCN)NC(=O)CNC(=O)[C@@H](NC(=O)[C@H](C)NC(=O)[C@@H]1CSCSC[C@H](NC(=O)CC[C@H](N)C(=O)O)C(=O)N[C@@H](CC(N)=O)C(=O)N[C@@H]([C@@H](C)O)C(=O)N[C@@H](C)C(=O)N[C@@H]([C@@H](C)O)C(=O)N1)[C@@H](C)O)C(=O)N[C@@H](C)C(=O)N[C@@H](CCC(=O)O)C(=O)N[C@@](C)(Cc1ccccc1)C(=O)N[C@@H](CC(C)C)C(=O)N[C@H](C(=O)N[C@@H](CCCNC(=N)N)C(=O)N[C@@H](CO)C(=O)N[C@@H](CO)C(=O)N[C@@H](CC(N)=O)C(=O)N(C)[C@@H](CC(=O)O)C(=O)N[C@@H](Cc1ccccc1)C(=O)NCC(=O)N1CCC[C@H]1C(=O)N[C@@H](CCCCNC(=O)CC[C@H](NC(=O)CC[C@H](NC(=O)CCCCCCCCCCCCCCCCCCC(=O)O)C(=O)O)C(=O)O)C(=O)N[C@@H](CC(C)C)C(=O)N1CCC[C@H]1C(=O)N1CCC[C@H]1C(=O)N[C@H](C(=O)N[C@@H](CCC(=O)O)C(=O)N[C@H](C(=O)NCC(=O)N[C@@H](CO)C(=O)N[C@@H](CC(N)=O)C(=O)N[C@H](C(=O)N[C@@H](Cc1ccc(O)cc1)C(N)=O)[C@@H](C)O)C(C)C)[C@@H](C)O)C(C)C [Compound IV, γE-CNTATCATG-Orn-LAE-αMeF-LVRSSN-NMeD-FGPKLPPTEVGSNTY-NH2] (γGlu-CNTATCATG[Orn]LAE[αMeF]LVRSSN[NMeD]FGPK([γGlu-γGlu-C20 diacid])LPPTEVGSNTY-NH2; linker 1-6 via CH2)",6.14 ± 0.764,0.0296 ± 0.0099,no peptides,Low Risk,no peptides displayed on MHC-II complexes
